Experimental data published in US5646246A, “Isolation and structural elucidation of the human cancer cell growth inhibitory cyclic peptides phakellistatin 4, 5, 6, 7, 8 and 9” (Arizona Board of Regents acting on behalf of Arizona State …, priority 1994, dated 1997).
Values after ≈ are worked out from the molar mass of the structure shown. Where a SMILES comes first, the peptide text is derived from it.

Legend:
Type in all cases: cell-based
[1] = system: NCI human cancer cell line panel; assay: NCI human cancer cell line panel, in vitro primary screen; settings: for in vitro growth inhibitory activity against human cancer cell lines: result in words
Text: Current research in the control of cancer in the U.S. is coordinated by the National Cancer Institute (NCI). To determine whether a substance has anti-cancer properties, the NCI has established a systematic protocol. This protocol, which involves the testing of a substance against a standard cell line panel containing 60 human tumor cell lines, has been verified and is accepted in scientific circles. The protocol, and the established statistical means for analyzing the results obtained by the standardized testing are fully described in the literature. See: Boyd, Dr. Michael R., Principles & Practice of Oncology, PPO Updates, Volume 3, Number 10, October 1989, for a general overview of the testing protocol; Monks, Anne et al., "Feasibility of a High-Flux Anticancer Drug Screen Using a Diverse Panel of Cultured Human Tumor Cell Lines", 83 J. Nat. Cancer Inst., No. 11, 757 (1991); and Paull, K. D., "Display and Analysis of Patterns of Differential Activity of Drugs Against Human Tumor Cell Lines; Development of Mean Graph and COMPARE Algorithm", 81 Journal of the National Cancer Institute Reports, No. 14, 1088, (1989), for a description of the methods of statistical analysis. Each of these references are incorporated herein by this reference thereto.
(§1) ED50 (P388) and GI50 (HTCL) are the drug doses needed to reduce the percent growth to 50%. There is no mathematical difference between ED50 and GI50, which are both calculated using the same formula. The only difference is historical usage. TGI, (Total Growth Inhibition), is the drug dose needed to yield zero percent growth, i.e., just as many cells at the end of the experiment as were present in the beginning. Whether just as many cells were killed as were produced (steady state), or no growth occurred (total inhibition), cannot be distinguished.
LC50, (Lethal Concentration 50%), is the drug concentration which reduces growth to -50%, i.e., removes half of the cells originally present at the beginning of the experiment.
(§2) Each drug is tested at five (5) doses: 100--10--1--0.1--0.01 μg/ml. Percent Growths are calculated for each dose. The two (or three) doses with growth values above, below, (or near to) 50% growth are used to calculate the ED50 /GI50 using a linear regression formula. The log of the dose is used during the regression computation. If no dose yields a growth value under 50%, the results are expressed as: ED50 >(highest dose). If no dose yields growth higher than 50% growth, then ED50 <(lowest dose). Similar calculations are performed for the TGI at 0% growth, and at -50% growth for the LC50.
(§3) At the start of an experiment, cells from the in vitro cell cultures are inoculated into the appropriate tubes or microtiter plates. One set of control tubes/plates is immediately counted to determine the number of cells at the start of the experiment. This is the "baseline count", or "Tzero reading". At the end of the experiment (48 hours later), a second set of control tubes/plates is analyzed to determine the "Control Growth" value. The growth (or death) of cells relative to the initial quantity of cells is used to define the "Percent of Growth".

[2] = system: murine lymphocytic leukemia P388; assay: in vitro murine P388 lymphocytic leukemia cell growth inhibition; settings: dose reducing percent growth to 50%
Text: The following measures are used to express drug activity by giving the drug dose which reduces cell growth to a specified percentage of growth:
as §1, §2, §3

A498 = assay: human cancer cell line growth inhibition, renal A498
Text: as §1
(§4) Each drug is tested at five (5) doses: 100--10--1--0.1--0.01 μg/ml. Percent Growths are calculated for each dose. The two (or three) doses with growth values above, below, (or near to) 50% growth are used to calculate the ED50 /GI50 using a linear regression formula. […]
as §3

NCI-H460 = assay: human cancer cell line growth inhibition, lung NCI-H460
Text: as §1, §4, §3

SK-MEL-5 = assay: human cancer cell line growth inhibition, melanoma SK-MEL-5
Text: as §1, §4, §3

KM20L2 = assay: human cancer cell line growth inhibition, colon KM20L2
Text: as §1, §4, §3

OVCAR-3 = assay: human cancer cell line growth inhibition, ovarian OVCAR-3
Text: as §1, §4, §3

SF-295 = assay: human cancer cell line growth inhibition, CNS SF-295
Text: as §1, §4, §3

| Structure (SMILES) | in vitro growth inhibitory activity against human cancer cell lines [1] | ED50 (P388) [2] | GI50 renal A498 (A498) | GI50 lung NCI-H460 (NCI-H460) | GI50 melanoma SK-MEL-5 (SK-MEL-5) | GI50 colon KM20L2 (KM20L2) | GI50 ovarian OVCAR-3 (OVCAR-3) | GI50 CNS SF-295 (SF-295) | GI50 ([1]; NCI human cancer cell line panel, quadruplicate experiments) |
| --- | --- | --- | --- | --- | --- | --- | --- | --- | --- |
| CC[C@H](C)[C@@H]1NC(=O)[C@@H]2CCCN2C(=O)[C@@H]2CCCN2C(=O)[C@H]([C@@H](C)CC)NC(=O)[C@H](Cc2ccc(O)cc2)NC(=O)[C@@H]2CCCN2C(=O)[C@@H]2CCCN2C(=O)[C@H](CC(C)C)NC(=O)[C@H](C(C)C)NC(=O)[C@H](Cc2ccccc2)NC1=O [phakellistatin 8, cyclo-(Pro-Pro-Ile-Phe-Val-Leu-Pro-Pro-Tyr-Ile)] (cyclo(FVLPPYIPPI)) | growth inhibitory activity was also demonstrated | 4.1 µg/mL (≈ 3.6 µM) | – | – | – | – | – | – | – |
| CC[C@H](C)[C@@H]1NC(=O)[C@@H]2CCCN2C(=O)[C@H](CC(C)C)NC(=O)C(Cc2c[nH]c3ccccc23)NC(=O)[C@@H]2CCCN2C(=O)[C@H](Cc2ccccc2)NC(=O)[C@@H]2CCCN2C1=O (stereo partly drawn) [phakellistatin 6, cyclo-(Pro-Trp-Leu-Pro-Ile-Pro-Phe)] | growth inhibitory activity was also demonstrated | 0.18 µg/mL (≈ 0.212 µM) | 0.078 µg/mL (≈ 0.0917 µM) | 0.019 µg/mL (≈ 0.0223 µM) | 0.032 µg/mL (≈ 0.0376 µM) | 0.021 µg/mL (≈ 0.0247 µM) | 0.025 µg/mL (≈ 0.0294 µM) | 0.041 µg/mL (≈ 0.0482 µM) | – |
| CC[C@H](C)[C@@H]1NC(=O)[C@H](C)NC(=O)[C@H](CCSC)NC(=O)[C@H](C)NC(=O)[C@@H](CC(N)=O)NC(=O)[C@H](Cc2ccccc2)NC(=O)[C@@H]2CCCN2C1=O [phakellistatin 5, cyclo-(Pro-Phe-Asn-Ala-Met-Ala-Ile)] | growth inhibitory activity was also demonstrated | 0.23 µg/mL (≈ 0.309 µM) | – | – | – | – | – | – | ~3000 nM |
| CC[C@H](C)[C@@H]1NC(=O)[C@@H]2CCCN2C(=O)[C@@H]2CCCN2C(=O)[C@H](C(C)C)NC(=O)[C@H](Cc2ccc(O)cc2)NC(=O)[C@@H]2CCCN2C(=O)[C@@H]2CCCN2C(=O)[C@H](CC(C)C)NC(=O)[C@H](C(C)C)NC(=O)[C@H](Cc2ccccc2)NC1=O [phakellistatin 9, cyclo-(Pro-Pro-Ile-Phe-Val-Leu-Pro-Pro-Tyr-Val)] (cyclo(FVLPPYVPPI)) | growth inhibitory activity was also demonstrated | 1.7 µg/mL (≈ 1.51 µM) | – | – | – | – | – | – | – |
| CC[C@H](C)[C@@H]1NC(=O)[C@@H]2CCCN2C(=O)[C@@H]2CCCN2C(=O)[C@H]([C@@H](C)CC)NC(=O)[C@H](Cc2ccc(O)cc2)NC(=O)[C@@H]2CCCN2C(=O)[C@@H]2CCCN2C(=O)[C@H](CC(C)C)NC(=O)[C@H](C)NC(=O)[C@H](Cc2ccccc2)NC1=O [phakellistatin 7, cyclo-(Pro-Pro-Ile-Phe-Ala-Leu-Pro-Pro-Tyr-Ile)] (cyclo(ALPPYIPPIF)) | growth inhibitory activity was also demonstrated | 3.0 µg/mL (≈ 2.7 µM) | – | – | – | – | – | – | – |
